Reference: BindingDB's records for doi:10.1016/j.bioorg.2016.05.004 (Universidade De Evora, 2016)

How the values were obtained:
[1] = molecular target: Acetylcholinesterase (Electrophorus electricus, UniProt O42275); assay: EeAChE Inhibition Assay
Procedure: The inhibition assay of these compounds for AChE (electrophorus electricus) and BuChE (equine serum) were determined by the spectroscopic method described by Ellman et al. which was adapted for 96-well microplates. 25 The standard compound used was galantamine. A 75 μL of different concentrations of the sample was dissolved in buffer with a maximum of 10% DMSO, 25 μL of ATCI (15 mM), and 125 μL of DTNB 3 mM were added to the wells followed by 25 μL of 0.3 U/mL AChE. The velocity was measured by the increase in the absorbance at 405 nm during 1 min time interval at 25 C in a BIO-TEK ELX800G microplate reader (using Gen5 v.1.05 software).

[2] = molecular target: Carboxylic ester hydrolase (Equus caballus, UniProt Q9N1N9); assay: EqBuChE Inhibition Assay
Procedure: The in vitro BuChE assay was performed similarly to the method described above. A standard enzyme activity curve was drawn for each enzyme using seven different concentrations ranging from 0.1 U/mL to 1 U/mL and enzyme activity was calculated (one unit of enzyme will hydrolyze 1.0 μmol of acetylthiocholine to thiocholine and acetate per minute). Inhibitory activity was calculated from 100 subtracted by the percentage of enzyme activity.

Carboxylic ester hydrolase, sequence (Q9N1N9 whole entry): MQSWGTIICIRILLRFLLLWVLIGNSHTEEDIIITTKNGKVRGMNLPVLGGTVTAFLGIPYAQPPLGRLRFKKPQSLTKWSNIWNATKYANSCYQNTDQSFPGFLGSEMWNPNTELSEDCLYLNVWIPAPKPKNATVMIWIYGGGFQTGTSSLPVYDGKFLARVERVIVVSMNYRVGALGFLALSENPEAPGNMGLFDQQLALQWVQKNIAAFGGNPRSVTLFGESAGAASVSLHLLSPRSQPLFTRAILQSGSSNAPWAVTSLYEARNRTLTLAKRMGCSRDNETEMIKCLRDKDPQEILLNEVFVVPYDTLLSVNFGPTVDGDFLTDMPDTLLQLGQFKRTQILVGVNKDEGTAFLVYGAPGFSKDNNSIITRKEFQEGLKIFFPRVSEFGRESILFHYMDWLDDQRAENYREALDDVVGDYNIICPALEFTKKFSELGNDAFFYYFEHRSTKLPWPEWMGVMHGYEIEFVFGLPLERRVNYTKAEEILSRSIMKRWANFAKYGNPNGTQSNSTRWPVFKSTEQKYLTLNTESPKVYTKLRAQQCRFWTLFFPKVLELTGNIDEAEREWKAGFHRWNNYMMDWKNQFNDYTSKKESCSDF
Acetylcholinesterase, sequence (O42275 whole entry): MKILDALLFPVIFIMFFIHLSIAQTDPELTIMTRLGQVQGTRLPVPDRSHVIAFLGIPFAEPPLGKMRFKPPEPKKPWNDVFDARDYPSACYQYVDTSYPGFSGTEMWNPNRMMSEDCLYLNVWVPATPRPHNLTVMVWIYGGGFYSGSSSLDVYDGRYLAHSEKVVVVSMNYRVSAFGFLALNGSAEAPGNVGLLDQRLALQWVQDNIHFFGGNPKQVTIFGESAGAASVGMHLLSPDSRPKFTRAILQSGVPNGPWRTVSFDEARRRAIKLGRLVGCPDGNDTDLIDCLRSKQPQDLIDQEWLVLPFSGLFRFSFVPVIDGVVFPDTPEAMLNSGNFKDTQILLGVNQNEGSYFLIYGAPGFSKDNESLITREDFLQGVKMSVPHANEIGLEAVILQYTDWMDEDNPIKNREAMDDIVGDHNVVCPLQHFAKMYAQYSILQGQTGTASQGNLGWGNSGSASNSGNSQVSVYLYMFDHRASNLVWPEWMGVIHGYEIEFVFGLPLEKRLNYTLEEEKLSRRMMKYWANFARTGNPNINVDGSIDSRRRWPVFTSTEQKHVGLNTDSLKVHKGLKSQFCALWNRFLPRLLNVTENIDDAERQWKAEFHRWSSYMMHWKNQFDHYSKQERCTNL

Row | SMILES | IC50 [1] | IC50 [2]
1 | O=C1NCC(O)c2ccccc21 (stereo unspecified) [Isoquinolin-1(2H)-ones, 1a] | 136 µM | 807 µM
2 | COc1ccc2c(c1)C(=O)NCC2O (stereo unspecified) [Isoquinolin-1(2H)-ones, 1e] | 311 µM | > 1500 µM
3 | Cc1ccc2c(n1)C(O)CCNC2=O (stereo unspecified) [Isoquinolin-1(2H)-ones, 4b] | > 1500 µM | > 1500 µM
4 | Cc1ccc2c(c1)C(=O)NCC2O (stereo unspecified) [Isoquinolin-1(2H)-ones, 1b] | > 1500 µM | 352 µM
5 | O=C1NCC(O)c2ccsc21 (stereo unspecified) [Isoquinolin-1(2H)-ones, 5] | 1370 µM | > 1500 µM
6 | O=C1NCCC(O)c2ncccc21 (stereo unspecified) [Isoquinolin-1(2H)-ones, 4a] | 550 µM | > 1500 µM
7 | COc1ccc2c3c1O[C@H]1C[C@@H](O)C=C[C@@]31CCN(C)C2 [galantamine] |  | 61.9 µM
8 | Cc1ccc2c(c1)C(=O)NCCC2O (stereo unspecified) [Isoquinolin-1(2H)-ones, 2b] | 536 µM | 108 µM
9 | Cc1ccc2c(c1)C(O)CNC2=O (stereo unspecified) [Isoquinolin-1(2H)-ones, 1c] | > 1500 µM | > 1500 µM
10 | O=C1NCC(O)c2cc(Cl)ccc21 (stereo unspecified) [Isoquinolin-1(2H)-ones, 1d] | > 1500 µM | 226 µM
11 | COC1CNC(=O)c2ccccc21 (stereo unspecified) [Isoquinolin-1(2H)-ones, 1f] | 89.5 µM | 154 µM
